Data from patent US20100204045A1, “Systemicity Enhancers” (BASF SE, priority 2007, published 2010).

System: aphids
Experiment: Root systemicity of fipronil with polymers: wheat plants in vermiculite drenched, infested with aphids, aphid population counted
Type: in vivo, aphids on wheat plants
Conditions: 4 days after infestation, relative to plants not treated with fipronil
Description: To test the root systemicity of fipronil with polymers according to the invention, wheat plants in vermiculite were drenched with 20 ml fipronil/polymer (1:1 wt) solutions in Hoagland solution/acetone mixtures (0.6 v % acetone). Two fipronil and polymer concentrations were used, 3 ppm and 6 ppm. As reference fipronil solutions in Hoagland solution/acetone mixtures without polymer were used. Hoagland solution consists of the following ingredients:
0.25 v % of 1M KNO3 solution in water, 0.1 v % of 1 M MgSO4 solution in water, 0.05 v % of 1M KH2PO4 solution in water, 0.25 v % 1M Ca(NO3)2) solution in water, 0.05 v % of a trace solution consisting of 2.86 g/l H3BO3, 1.81 g/l MnCl2*4H2O, 0.22 g/l ZnSO4*7H2O, 0.08 g/l CuSO4*5H2O, 0.016 g/l MoO3 in water, 0.075 v % Sequestrene 138 Fe consisting of 30 g/l sodium ferric ethylenediamine di-(o-hydroxyphenylacetate) in water, 99.225 v % water sterilized and pH adjusted to 6-6.5 with NaOH.
The plants were then infested with aphids. After 4 days the aphid population on the wheat plants was counted. The results of fipronil and fipronil with polymer are related to the aphid population on plants that had not been treated with fipronil.

Compound: N#Cc1nn(-c2c(Cl)cc(C(F)(F)F)cc2Cl)c(N)c1[S+]([O-])C(F)(F)F (stereo not shown) [Reference A, fipronil]
- Aphid population (Table 1, 3 ppm fipronil (and polymer, 1:1 wt)): 51%
- Aphid population (Table 1, 6 ppm fipronil (and polymer, 1:1 wt)): 23%
- Aphid population (Table 2, 3 ppm fipronil (and polymer, 1:1 wt)): 23%
- Aphid population (Table 2, 6 ppm fipronil (and polymer, 1:1 wt)): 12%
